Assay results published in paper PMC5218480 (PLoS ONE, 2017).

System: MV-4-11 cells
Experiment: Gene expression microarray analysis (Affymetrix PrimeView) and GSEA
Type: cell-based, human
Set-up: RFU PODN (11730768_x_at) / Fold change /veh PODN (11730768_x_at) / RFU LINC00158 (11744669_a_at) / Fold change /veh LINC00158 (11744669_a_at) / RFU DUSP10 (11751237_a_at) / Fold change /veh DUSP10 (11751237_a_at) / RFU ID3 (11757404_x_at) / Fold change /veh ID3 (11757404_x_at) / RFU PLEKHG5 (11737974_s_at) / Fold change /veh PLEKHG5 (11737974_s_at) / RFU LRRC4B (11730491_at) / Fold change /veh LRRC4B (11730491_at) / RFU GIMAP4 (11747438_a_at) / Fold change /veh GIMAP4 (11747438_a_at) / RFU KRT8 (11758183_x_at) / Fold change /veh KRT8 (11758183_x_at) / RFU CNN1 (11734310_a_at) / Fold change /veh CNN1 (11734310_a_at) / RFU VPS37D (11726825_at) / Fold change /veh VPS37D (11726825_at) / RFU C10orf10 (11716522_x_at) / Fold change /veh C10orf10 (11716522_x_at) / RFU KIR2DL2 /// KIR2DL4 /// KIR2DL5A /// KIR2DL5B /// KIR2DS1 /// KIR2DS2 /// KIR2DS3 /// KIR2DS4 /// KIR3DL3 /// KIR3DL3 /// KIR3DS1 (11738374_at) / Fold change /veh KIR2DL2 /// KIR2DL4 /// KIR2DL5A /// KIR2DL5B /// KIR2DS1 /// KIR2DS2 /// KIR2DS3 /// KIR2DS4 /// KIR3DL3 /// KIR3DL3 /// KIR3DS1 (11738374_at) / RFU C1QL1 (11718748_at) / Fold change /veh C1QL1 (11718748_at) / RFU TMPRSS4 (11747572_a_at) / Fold change /veh TMPRSS4 (11747572_a_at) / RFU HAMP (11756126_x_at) / Fold change /veh HAMP (11756126_x_at) / RFU RNFT2 (11725882_a_at) / Fold change /veh RNFT2 (11725882_a_at) / RFU NR4A2 (11747474_a_at) / Fold change /veh NR4A2 (11747474_a_at) / RFU ABCC12 (11746883_a_at) / Fold change /veh ABCC12 (11746883_a_at) / RFU TMEM136 (11760407_x_at) / Fold change /veh TMEM136 (11760407_x_at) / RFU CLDN22 /// WWC2 (11732394_at) / Fold change /veh CLDN22 /// WWC2 (11732394_at) / RFU HLA-DPB1 (11760878_x_at) / Fold change /veh HLA-DPB1 (11760878_x_at) / RFU SPINT1 (11716480_a_at) / Fold change /veh SPINT1 (11716480_a_at) / RFU GAP43 (11754022_s_at) / Fold change /veh GAP43 (11754022_s_at) / RFU A4GNT (11735810_at) / Fold change /veh A4GNT (11735810_at) / RFU PRB3 (11715151_x_at) / Fold change /veh PRB3 (11715151_x_at) / RFU TUBB4B (11761932_at) / Fold change /veh TUBB4B (11761932_at) / RFU CAPN14 (11732068_a_at) / Fold change /veh CAPN14 (11732068_a_at) / RFU TMCC2 (11721928_a_at) / Fold change /veh TMCC2 (11721928_a_at) / RFU IRGQ (11745062_a_at) / Fold change /veh IRGQ (11745062_a_at) / RFU FAM174B (11720279_a_at) / Fold change /veh FAM174B (11720279_a_at) / RFU TMPRSS4 (11748680_a_at) / Fold change /veh TMPRSS4 (11748680_a_at) / RFU FAM212B (11763350_a_at) / Fold change /veh FAM212B (11763350_a_at) / RFU PLEKHG5 (11743358_a_at) / Fold change /veh PLEKHG5 (11743358_a_at) / RFU ZSCAN30 (11745921_a_at) / Fold change /veh ZSCAN30 (11745921_a_at) / RFU CMKLR1 (11741424_a_at) / Fold change /veh CMKLR1 (11741424_a_at) / RFU LOC101060620 /// MAPK8IP1 (11723275_at) / Fold change /veh LOC101060620 /// MAPK8IP1 (11723275_at) / RFU SPTSSB (11747773_x_at) / Fold change /veh SPTSSB (11747773_x_at) / RFU PRSS12 (11739890_at) / Fold change /veh PRSS12 (11739890_at) / RFU BIN1 (11741810_x_at) / Fold change /veh BIN1 (11741810_x_at) / RFU WNT11 (11732464_a_at) / Fold change /veh WNT11 (11732464_a_at) / RFU C10orf10 (11716521_a_at) / Fold change /veh C10orf10 (11716521_a_at) / RFU C5orf56 (11738089_at) / Fold change /veh C5orf56 (11738089_at) / RFU CYB561 (11721691_x_at) / Fold change /veh CYB561 (11721691_x_at) / RFU ANKRD19P (11752326_a_at) / Fold change /veh ANKRD19P (11752326_a_at) / RFU OR2T12 /// OR2T33 /// OR2T8 (11738714_s_at) / Fold change /veh OR2T12 /// OR2T33 /// OR2T8 (11738714_s_at) / RFU VCAN (11748164_a_at) / Fold change /veh VCAN (11748164_a_at) / RFU JSRP1 (11732532_at) / Fold change /veh JSRP1 (11732532_at) / RFU KRTAP10-11 (11738290_x_at) / Fold change /veh KRTAP10-11 (11738290_x_at) / RFU MYO3A (11730013_a_at) / Fold change /veh MYO3A (11730013_a_at) / RFU EBF3 (11725865_a_at) / Fold change /veh EBF3 (11725865_a_at) / RFU CAMK2N1 (11719241_x_at) / Fold change /veh CAMK2N1 (11719241_x_at) / RFU C5orf56 (11738088_a_at) / Fold change /veh C5orf56 (11738088_a_at) / RFU OLFML3 (11715873_a_at) / Fold change /veh OLFML3 (11715873_a_at) / RFU LOC100653217 /// NTM (11731650_a_at) / Fold change /veh LOC100653217 /// NTM (11731650_a_at) / RFU MAPK11 (11762145_a_at) / Fold change /veh MAPK11 (11762145_a_at) / RFU FIZ1 (11724087_x_at) / Fold change /veh FIZ1 (11724087_x_at) / RFU OASL (11726364_x_at) / Fold change /veh OASL (11726364_x_at) / RFU SOX15 (11748057_x_at) / Fold change /veh SOX15 (11748057_x_at) / RFU CD79A (11719716_a_at) / Fold change /veh CD79A (11719716_a_at) / RFU HIST1H1D (11736915_at) / Fold change /veh HIST1H1D (11736915_at) / RFU CASKIN2 (11723855_a_at) / Fold change /veh CASKIN2 (11723855_a_at) / RFU LOC730098 (11760151_x_at) / Fold change /veh LOC730098 (11760151_x_at) / RFU OR4N2 (11742367_at) / Fold change /veh OR4N2 (11742367_at) / RFU PRRT2 (11749266_a_at) / Fold change /veh PRRT2 (11749266_a_at) / RFU SNX32 (11753110_a_at) / Fold change /veh SNX32 (11753110_a_at) / RFU CDHR5 (11726645_a_at) / Fold change /veh CDHR5 (11726645_a_at) / RFU RCAN1 (11760418_a_at) / Fold change /veh RCAN1 (11760418_a_at) / RFU FAM167A (11723789_a_at) / Fold change /veh FAM167A (11723789_a_at) / RFU FAM26E (11764081_at) / Fold change /veh FAM26E (11764081_at) / RFU ISYNA1 (11749810_s_at) / Fold change /veh ISYNA1 (11749810_s_at) / RFU ACY1 (11761880_at) / Fold change /veh ACY1 (11761880_at) / RFU 11764098_at / Fold change /veh 11764098_at / RFU SAMD14 (11745864_x_at) / Fold change /veh SAMD14 (11745864_x_at) / RFU NPB (11741838_a_at) / Fold change /veh NPB (11741838_a_at) / RFU TMPRSS6 (11731388_a_at) / Fold change /veh TMPRSS6 (11731388_a_at) / RFU KRTAP10-2 (11738614_at) / Fold change /veh KRTAP10-2 (11738614_at) / RFU ARHGAP8 /// PRR5-ARHGAP8 (11727945_x_at) / Fold change /veh ARHGAP8 /// PRR5-ARHGAP8 (11727945_x_at) / RFU KRTAP5-7 /// NADSYN1 (11734609_at) / Fold change /veh KRTAP5-7 /// NADSYN1 (11734609_at) / RFU RASL12 (11751679_a_at) / Fold change /veh RASL12 (11751679_a_at) / RFU CDKN2B (11736163_a_at) / Fold change /veh CDKN2B (11736163_a_at) / RFU PRF1 (11729649_at) / Fold change /veh PRF1 (11729649_at) / RFU, ZNF638 /// ZNF638-IT1 / Fold change vs veh, ZNF638 /// ZNF638-IT1 / RFU, PANK3 / Fold change vs veh, PANK3 / RFU, SH3YL1 / Fold change vs veh, SH3YL1 / RFU, ZEB2 / Fold change vs veh, ZEB2 / RFU, NRIP1 / Fold change vs veh, NRIP1 / RFU, PTTG1IP / Fold change vs veh, PTTG1IP / RFU, CAPN2 / Fold change vs veh, CAPN2 / RFU, MED14 / Fold change vs veh, MED14 / RFU, SNORA58 / Fold change vs veh, SNORA58 / RFU, C1orf63 / Fold change vs veh, C1orf63 / RFU, LRRFIP1 / Fold change vs veh, LRRFIP1 / RFU, NDUFAF7 / Fold change vs veh, NDUFAF7 / RFU, SLC12A2 / Fold change vs veh, SLC12A2 / RFU, IBTK / Fold change vs veh, IBTK / RFU, ESF1 / Fold change vs veh, ESF1 / Fold change vs veh, TMEM50B / RFU, TAOK1 / Fold change vs veh, TAOK1 / RFU, ACBD3 / Fold change vs veh, ACBD3 / RFU, TMA16 / Fold change vs veh, TMA16 / RFU, RWDD3 / Fold change vs veh, RWDD3 / RFU, BCAT1 / Fold change vs veh, BCAT1 / RFU, EDEM3 / Fold change vs veh, EDEM3 / RFU, TMEM33 / Fold change vs veh, TMEM33 / RFU, WDR75 / Fold change vs veh, WDR75 / RFU, AHCTF1 / Fold change vs veh, AHCTF1 / RFU, TFRC / Fold change vs veh, TFRC / RFU, ZDHHC17 / Fold change vs veh, ZDHHC17 / RFU, NOM1 / Fold change vs veh, NOM1 / RFU, ARL8B / Fold change vs veh, ARL8B / RFU, ZBTB11 / Fold change vs veh, ZBTB11 / RFU, TAMM41 / Fold change vs veh, TAMM41 / RFU, KIAA1704 /// LOC100996395 / Fold change vs veh, KIAA1704 /// LOC100996395 / RFU, ING1 / Fold change vs veh, ING1 / RFU, TRMT61B / Fold change vs veh, TRMT61B / RFU, FUBP3 / Fold change vs veh, FUBP3 / RFU, TP53 / Fold change vs veh, TP53 / RFU, TNKS2 / Fold change vs veh, TNKS2 / RFU, ZFP14 / Fold change vs veh, ZFP14 / RFU, ACTR2 / Fold change vs veh, ACTR2 / RFU, PPP3R1 / Fold change vs veh, PPP3R1 / RFU, PIK3R1 / Fold change vs veh, PIK3R1 / RFU, HNRNPA1 / Fold change vs veh, HNRNPA1 / RFU, RNF170 / Fold change vs veh, RNF170 / RFU, ZNF28 / Fold change vs veh, ZNF28 / RFU, RNGTT / Fold change vs veh, RNGTT / RFU, OGT / Fold change vs veh, OGT / RFU, BRD1 / Fold change vs veh, BRD1 / RFU, MARS / Fold change vs veh, MARS / RFU, ZNF655 / Fold change vs veh, ZNF655 / RFU, FAHD1 / Fold change vs veh, FAHD1 / RFU, BDP1 / Fold change vs veh, BDP1 / RFU, LRRCC1 / Fold change vs veh, LRRCC1 / RFU, ARID1A / Fold change vs veh, ARID1A / RFU, ZNF146 / Fold change vs veh, ZNF146 / RFU, ZNF330 / Fold change vs veh, ZNF330 / RFU, GPN3 / Fold change vs veh, GPN3 / RFU, C9orf123 / Fold change vs veh, C9orf123 / RFU, N4BP2L2 / Fold change vs veh, N4BP2L2 / RFU, ARFIP1 / Fold change vs veh, ARFIP1 / RFU, FAM179B / Fold change vs veh, FAM179B / RFU, BCL10 / Fold change vs veh, BCL10 / RFU, UHRF1BP1L / Fold change vs veh, UHRF1BP1L / RFU, BET1 / Fold change vs veh, BET1 / RFU, CNOT2 / Fold change vs veh, CNOT2 / RFU, ZNF268 / Fold change vs veh, ZNF268 / Fold change vs veh, ZNF507 / RFU, DGCR2 / Fold change vs veh, DGCR2 / RFU, WDSUB1 / Fold change vs veh, WDSUB1 / Fold change vs veh, HSP90B1 /// MIR3652 / RFU, ADSS / Fold change vs veh, ADSS / RFU, GK / Fold change vs veh, GK / RFU, ZNF148 / Fold change vs veh, ZNF148 / RFU, TAF9 / Fold change vs veh, TAF9 / RFU, SLC1A5 / Fold change vs veh, SLC1A5 / RFU, SLMO2 / Fold change vs veh, SLMO2 / RFU, ABCC4 / Fold change vs veh, ABCC4 / RFU, LOC101060439 /// RAP1B / Fold change vs veh, LOC101060439 /// RAP1B / RFU, RFX7 / Fold change vs veh, RFX7 / RFU, GTPBP10 / Fold change vs veh, GTPBP10 / RFU, CNEP1R1 / Fold change vs veh, CNEP1R1 / RFU, BIVM-ERCC5 /// ERCC5 / Fold change vs veh, BIVM-ERCC5 /// ERCC5 / RFU, ILF3 / Fold change vs veh, ILF3 / RFU 11762660_at / Fold change /veh 11762660_at / RFU VCAN (11757783_s_at) / Fold change /veh VCAN (11757783_s_at) / RFU DDX43 (11728927_at) / Fold change /veh DDX43 (11728927_at) / RFU KRT8 (11758188_x_at) / Fold change /veh KRT8 (11758188_x_at) / RFU NKD1 (11759106_at) / Fold change /veh NKD1 (11759106_at) / RFU SRD5A1 (11742802_a_at) / Fold change /veh SRD5A1 (11742802_a_at) / RFU TPSAB1 /// TPSB2 (11721975_s_at) / Fold change /veh TPSAB1 /// TPSB2 (11721975_s_at) / RFU GSTM3 (11746129_a_at) / Fold change /veh GSTM3 (11746129_a_at) / RFU IL23R (11737362_x_at) / Fold change /veh IL23R (11737362_x_at) / RFU TMEM51 (11727254_a_at) / Fold change /veh TMEM51 (11727254_a_at) / RFU PIWIL2 (11732686_x_at) / Fold change /veh PIWIL2 (11732686_x_at) / RFU ORM1 (11744905_x_at) / Fold change /veh ORM1 (11744905_x_at) / RFU CCDC152 (11743942_at) / Fold change /veh CCDC152 (11743942_at) / RFU ECM1 (11717891_a_at) / Fold change /veh ECM1 (11717891_a_at) / RFU IL23R (11748794_a_at) / Fold change /veh IL23R (11748794_a_at) / RFU TNFAIP8L3 (11732012_x_at) / Fold change /veh TNFAIP8L3 (11732012_x_at) / RFU MBOAT4 (11741988_at) / Fold change /veh MBOAT4 (11741988_at) / RFU 11764193_at / Fold change /veh 11764193_at / RFU TMEM53 (11763286_at) / Fold change /veh TMEM53 (11763286_at) / RFU MAGEB2 (11727129_at) / Fold change /veh MAGEB2 (11727129_at) / RFU TMEM200A (11744735_a_at) / Fold change /veh TMEM200A (11744735_a_at) / RFU CCDC152 (11751479_a_at) / Fold change /veh CCDC152 (11751479_a_at) / RFU FAM211A (11726209_a_at) / Fold change /veh FAM211A (11726209_a_at) / RFU RGS16 (11746705_a_at) / Fold change /veh RGS16 (11746705_a_at) / RFU VCAN (11755009_s_at) / Fold change /veh VCAN (11755009_s_at) / RFU RHOB (11743442_s_at) / Fold change /veh RHOB (11743442_s_at) / RFU RGS16 (11720943_a_at) / Fold change /veh RGS16 (11720943_a_at) / RFU RGS16 (11720944_at) / Fold change /veh RGS16 (11720944_at) / RFU, VPS4B / Fold change vs veh, VPS4B / RFU, CREB1 / Fold change vs veh, CREB1 / RFU, DNAJC13 / Fold change vs veh, DNAJC13 / RFU, GNAQ / Fold change vs veh, GNAQ / RFU, CDK5R1 / Fold change vs veh, CDK5R1 / RFU, ZRANB3 / Fold change vs veh, ZRANB3 / RFU, CUL4A / Fold change vs veh, CUL4A / RFU, CCNY / Fold change vs veh, CCNY / RFU, UFL1 / Fold change vs veh, UFL1 / RFU, COG3 / Fold change vs veh, COG3 / RFU, DIAPH2 / Fold change vs veh, DIAPH2 / RFU, SKA2 / Fold change vs veh, SKA2 / RFU, AFF3 / Fold change vs veh, AFF3 / RFU, LMF1 / Fold change vs veh, LMF1 / RFU, IPO11 / Fold change vs veh, IPO11 / RFU, DFFB / Fold change vs veh, DFFB / RFU, FOXP1 / Fold change vs veh, FOXP1 / RFU, CARD8 / Fold change vs veh, CARD8 / RFU, STRN3 / Fold change vs veh, STRN3 / RFU, ADK / Fold change vs veh, ADK / RFU, RASSF2 / Fold change vs veh, RASSF2 / RFU, WIPF1 / Fold change vs veh, WIPF1 / RFU, LARP1B / Fold change vs veh, LARP1B / RFU, RASA1 / Fold change vs veh, RASA1 / RFU, RB1 / Fold change vs veh, RB1 / RFU, PPFIA1 / Fold change vs veh, PPFIA1 / RFU, MAT2A / Fold change vs veh, MAT2A / RFU, CCT5 / Fold change vs veh, CCT5 / RFU, WDR92 / Fold change vs veh, WDR92 / RFU, CUX1 / Fold change vs veh, CUX1 / RFU, TTC7A / Fold change vs veh, TTC7A / RFU, TMEM135 / Fold change vs veh, TMEM135 / RFU, DEPTOR / Fold change vs veh, DEPTOR / RFU, CPM / Fold change vs veh, CPM / RFU, DNAJB6 / Fold change vs veh, DNAJB6 / RFU, CACNA2D3 / Fold change vs veh, CACNA2D3 / RFU, DTX4 / Fold change vs veh, DTX4 / RFU, TFCP2 / Fold change vs veh, TFCP2 / RFU, GMCL1 /// GMCL1P1 / Fold change vs veh, GMCL1 /// GMCL1P1 / RFU, AEBP2 / Fold change vs veh, AEBP2 / RFU, SNHG1 /// SNORD22 /// SNORD25 /// SNORD26 /// SNORD27 /// SNORD28 /// SNORD29 /// SNORD31 / Fold change vs veh, SNHG1 /// SNORD22 /// SNORD25 /// SNORD26 /// SNORD27 /// SNORD28 /// SNORD29 /// SNORD31 / Fold change (Aza/veh), C12orf56 (ProbeSet 11735607_a_at) / Fold change (ACY-1035/veh), C12orf56 (ProbeSet 11735607_a_at) / Fold change (Aza/veh), FGFR1OP (ProbeSet 11751329_s_at) / Fold change (ACY-1035/veh), FGFR1OP (ProbeSet 11751329_s_at) / Fold change (Aza/veh), VPS36 (ProbeSet 11739960_a_at) / Fold change (ACY-1035/veh), VPS36 (ProbeSet 11739960_a_at) / RFU SYPL1 (11715823_x_at) / Fold change /veh SYPL1 (11715823_x_at) / RFU IGFBP7 (11715501_s_at) / Fold change /veh IGFBP7 (11715501_s_at) / RFU REEP3 (11722064_at) / Fold change /veh REEP3 (11722064_at) / RFU IGLL1 (11728026_x_at) / Fold change /veh IGLL1 (11728026_x_at): dose or concentration left out as unconfirmed
Conditions: ProbeSet 11719493_s_at; LIST B

Nc1ncn([C@@H]2O[C@H](CO)[C@@H](O)[C@H]2O)c(=O)n1 [azacitidine]
RFU, TAF9: 607.12 RFU
